# Results reported in US11873298B2, “Compounds and uses thereof” (JANSSEN PHARMACEUTICA NV, priority 2017, dated 2024).
# Assays:
# SCD1 = target: T1, SCD1 (Homo sapiens, UniProt O00767); test: Growth inhibition of humanized yeast strain expressing SCD1 as sole desaturase; format: cell-based
# T1 construct: host or cells: S. cerevisiae ole1Δ strain (W303 pdr1Δ pdr3Δ background), plasmid pRS316 with TDH3 promoter and CYC1 terminator
# T1 sequence (O00767 1-359): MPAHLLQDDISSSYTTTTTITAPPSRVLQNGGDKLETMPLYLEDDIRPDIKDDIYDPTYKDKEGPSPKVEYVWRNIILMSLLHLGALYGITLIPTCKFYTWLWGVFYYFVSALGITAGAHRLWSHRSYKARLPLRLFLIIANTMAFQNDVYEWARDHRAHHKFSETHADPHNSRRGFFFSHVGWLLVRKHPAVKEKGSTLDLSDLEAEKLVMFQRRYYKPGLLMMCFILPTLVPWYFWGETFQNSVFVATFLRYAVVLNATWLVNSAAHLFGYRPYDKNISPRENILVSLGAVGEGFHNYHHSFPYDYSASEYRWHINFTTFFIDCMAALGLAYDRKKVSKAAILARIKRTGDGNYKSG
# In short: (§1)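 OD600 growth read-out. ole1Δ yeast, pdr1Δ pdr3Δ, with Ole1/SCD1/SCD5 on a plasmid; SX-Ura media throughout; 2× cell density 0.02 in CSM-Galactose; DMSO compound dilutions; humidified 30° C.; Ole1 stopped at 24 h, SCD1/SCD5 at 40 h.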
# SCD5 = target: T2, SCD5 (Homo sapiens, UniProt Q86SK9); test: Growth inhibition of humanized yeast strain expressing SCD5 as sole desaturase; format: cell-based
# T2 construct: host or cells: S. cerevisiae ole1Δ strain (W303 pdr1Δ pdr3Δ background), plasmid pRS316 with TDH3 promoter and CYC1 terminator
# T2 sequence (Q86SK9 1-330): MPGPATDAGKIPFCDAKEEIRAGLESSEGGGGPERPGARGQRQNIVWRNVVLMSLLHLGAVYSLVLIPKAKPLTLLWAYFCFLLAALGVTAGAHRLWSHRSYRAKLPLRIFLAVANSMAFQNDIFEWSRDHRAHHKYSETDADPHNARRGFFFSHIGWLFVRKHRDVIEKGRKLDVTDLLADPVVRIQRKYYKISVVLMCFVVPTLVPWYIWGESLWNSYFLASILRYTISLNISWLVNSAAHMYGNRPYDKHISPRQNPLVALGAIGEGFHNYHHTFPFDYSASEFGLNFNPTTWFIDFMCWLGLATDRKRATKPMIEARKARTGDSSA
# In short: as §1
# [1] = growth inhibition of humanized yeast strain expressing human SCD1
# [2] = growth inhibition of humanized yeast strain expressing human SCD5
# [3] = humanized yeast strain expressing SCD1
# [4] = humanized yeast strain expressing SCD5
SMILES,"IC50 (SCD1; humanized yeast strain, 40 h)","IC50 (SCD5; humanized yeast strain, 40 h)",also measured
CC(C)(C)OC(=O)N1CCN(c2noc(-c3ccc4cnn(C5CNC5)c4c3)n2)CC1 [Compound 932],> 45 µM,0.01 µM,–
O=C(C1CC1)N1CCN(c2nnc(-c3ccc4cnn(C5COC5)c4c3)o2)CC1 [Compound 987],> 45 µM,> 45 µM,–
COC(=O)N1CCC(c2noc(-c3ccc4c(C)nn(C)c4c3)n2)CC1 [Compound 921],> 45 µM,3.4 µM,–
O=C(N1CCC(c2noc(-c3cnc4cnn(C5COC5)c4c3)n2)CC1)C1(F)CC1 [Compound 1140],> 45 µM,0.0613 µM,–
CC(C)(C)OC(=O)N1CCC(c2nc(-c3cccc(C4CCOC4)c3)no2)CC1 (stereo not drawn) [Compound 658],–,–,IC50 (SCD1; [1]): > 45 µM; IC50 (SCD5; [2]): 0.089 µM
O=C(C1CCC1)N1CCN(c2nnc(-c3ccc4cnn(C5COC5)c4c3)o2)CC1 [Compound 996],> 45 µM,5.04 µM,–
O=C(N1CCC(c2noc(-c3cccc(N4CCOCC4)c3)n2)CC1)C1(F)CC1 [Compound 1080],> 45 µM,0.501 µM,–
CC(C)(C)OC(=O)N1CCC(c2nc(-c3ccc4c(Br)ncn4c3)no2)CC1 [Compound 872],> 45 µM,8.06 µM,–
CC(C)(C)CC(=O)N1CCN(c2nc(-c3ccc4cnn(C5COC5)c4c3)no2)CC1 [Compound 619],–,–,IC50 (SCD1; [1]): > 45 µM; IC50 (SCD5; [2]): 0.291 µM
CC(C)(C)OC(=O)N1CC(c2nc(-c3ccc4cnn(C5COC5)c4c3)no2)C1 [Compound 700],–,–,IC50 (SCD1; [1]): > 45 µM; IC50 (SCD5; [2]): 0.703 µM
O=C(N1CC(c2noc(-c3ccc4cnn(C5COC5)c4c3)n2)C1)C(F)(F)F [Compound 954],> 45 µM,2.86 µM,–
CC(C)n1nc(CCS(C)(=O)=O)c2ccc(-c3noc(C4CCN(C(=O)OC(C)(C)C)CC4)n3)cc21 [Compound 767],> 45 µM,0.01 µM,–
CC(C)(C)OC(=O)N1CCC(c2noc(-c3ccc4cnn(C5CCOC5)c4c3)n2)CC1 (stereo not drawn) [Compound 817],4.13 µM,0.01 µM,–
CC(C)(C)OC(=O)N1C[C@@H]2[C@H](C1)[C@H]2NC(=O)c1ccc2cnn(C3COC3)c2c1 [Compound 814],> 45 µM,> 45 µM,–
CC(C)(C)OC(=O)N1CCC(c2noc(-c3ccc4cnn(C5COC5)c4c3)n2)CC1 [Compound 750],3.25 µM,0.01 µM,–
CC(C)C(=O)N1CCC(c2noc(-c3cncc(N4CCC(F)(F)C4)c3)n2)CC1 [Compound 1174],> 45 µM,10.4 µM,–
COC(=O)N1CCC(c2noc(-c3ccc4oc(=O)n(C5COC5)c4c3)n2)CC1 [Compound 1031],> 45 µM,1.13 µM,–
CC(=O)N1CC(n2ncc3ccc(-c4nc(N5CCN(C(=O)OC(C)(C)C)CC5)no4)cc32)C1 [Compound 915],> 45 µM,10.1 µM,–
CC(C)C(=O)N1CCC(c2noc(-c3cnc4cnn(C5COC5)c4c3)n2)CC1 [Compound 1138],> 45 µM,0.761 µM,–

SMILES,"IC50 (SCD1; humanized yeast strain, 40 h)","IC50 (SCD5; humanized yeast strain, 40 h)",also measured
CCOCC1CCN(c2nc(-c3ccc4cnn(C(C)C)c4c3)no2)CC1 [Compound 614],–,–,IC50 (SCD1; [1]): > 45 µM; IC50 (SCD5; [2]): 13.9 µM
CC(C)(C)OC(=O)N1C[C@@H]2[C@H](C1)[C@H]2C(=O)NCc1ccc(Cl)cc1 [Compound 773],> 45 µM,21.5 µM,–
COC(=O)N1CCC(c2cc(-c3cc4c(cn3)cnn4C3COC3)on2)CC1 [Compound 1111],> 45 µM,0.179 µM,–
CC(C)n1ncc2ccc(-c3nc(N4CCn5c(Cl)cnc5C4)no3)cc21 [Compound 828],> 45 µM,0.067 µM,–
COC(=O)N1CCC(c2noc(-c3ccc(N4CCOCC4)cc3)n2)CC1 [Compound 1163],> 45 µM,> 45 µM,–
CC(C)n1ccc2ccc(-c3nc(C4CCN(C(=O)OC(C)(C)C)CC4)no3)cc21 [Compound 1048],> 45 µM,0.016 µM,–
COC(=O)N1CCC(F)(c2noc(-c3ccc4cnn(C5COC5)c4c3)n2)CC1 [Compound 892],> 45 µM,0.01 µM,–
COC(=O)N1CCN(c2noc(-c3ccc4cnn(C5CS(=O)(=O)C5)c4c3)n2)CC1 [Compound 998],> 45 µM,4.13 µM,–
CC1(OC(=O)N2CCC(c3nnc(-c4ccc5cnn(C6CCOC6)c5c4)o3)CC2)CC1 (stereo not drawn) [Compound 986],> 45 µM,0.048 µM,–
CC(C)n1ncc2ccc(-c3nc(C4CCN(C(=O)c5ncccc5Cl)CC4)no3)cc21 [Compound 692],–,–,IC50 (SCD1; [1]): > 45 µM; IC50 (SCD5; [2]): 0.492 µM
CC(C)n1ncc2ccc(N3CC4(CCN(C(=O)CC(C)(C)C)CC4)C3)cc21 [Compound 632],–,–,IC50 (SCD1; [1]): > 45 µM; IC50 (SCD5; [2]): > 45 µM
Cc1nn(C)c2cc(-c3noc(C4CCN(C(=O)CNC(=O)c5cccc(Cl)c5)CC4(F)F)n3)ccc12 (stereo not drawn) [Compound 603],–,–,IC50 (SCD1; [3]): 7.26 µM; IC50 (SCD5; [4]): 2.41 µM
O=C(c1ccccc1F)N1CCC(c2noc(-c3ccnc(NC4COC4)c3)n2)CC1 [Compound 1157],> 45 µM,> 45 µM,–
CCC(=O)N1CCC(c2noc(-c3ccc(F)c(N4CCOCC4)c3)n2)CC1 [Compound 1164],> 45 µM,0.54 µM,–
CC(C)(C)OC(=O)N1CC=C(c2ccc(-c3ccc4cnn(C5COC5)c4c3)cn2)CC1 [Compound 955],> 45 µM,> 45 µM,–
O=C(N1CCC(c2noc(-c3ccc4oc(=O)n(C5COC5)c4c3)n2)CC1)C1(F)CC1 [Compound 1131],> 45 µM,0.207 µM,–
CC(C)n1ncc2ccc(-c3nc(C4CCN(C(=O)c5ncccc5F)CC4)no3)cc21 [Compound 714],–,–,IC50 (SCD1; [1]): > 45 µM; IC50 (SCD5; [2]): 0.23 µM
CC(C)(C)CCC(=O)N1CC(c2nc(-c3ccc4cnn(C5COC5)c4c3)no2)C1 [Compound 749],> 45 µM,20.8 µM,–
CC(C)n1ncc2ccc(N3CC4(CCN(C(=O)OC(C)(C)C)CC4)OC3=O)cc21 [Compound 671],–,–,IC50 (SCD1; [1]): > 45 µM; IC50 (SCD5; [2]): > 45 µM

SMILES,"IC50 (SCD1; humanized yeast strain, 40 h)","IC50 (SCD5; humanized yeast strain, 40 h)",also measured
CC(C)n1ncc2ccc(-c3noc([C@H]4CC[C@H](O)CC4)n3)cc21 [Compound 634],–,–,IC50 (SCD1; [1]): > 45 µM; IC50 (SCD5; [2]): ≥ 45 µM
Cc1nn(C)c2cc(-c3noc(C4CCN(Cc5ccccc5)C(=O)C4)n3)ccc12 (stereo not drawn) [Compound 354],–,–,IC50 (SCD1; [3]): > 45 µM; SCD1 % Max Inhibition (SCD1; [3]): 30.16%; IC50 (SCD5; [4]): > 45 µM; SCD5 % Max Inhibition (SCD5; [4]): 4.29%
CC(C)n1ncc2c1CN(c1noc(C3CCN(C(=O)OC(C)(C)C)CC3)n1)CC2 [Compound 827],> 45 µM,> 45 µM,–
CC(C)C(=O)N1CCC(c2noc(-c3cccc(C4CCOC4)n3)n2)CC1 (stereo not drawn) [Compound 1188],> 45 µM,> 45 µM,–
CC(=O)N1CC(n2cc3ccc(-c4noc(N5CCN(C(=O)OC(C)(C)C)CC5)n4)cc3n2)C1 [Compound 898],> 45 µM,0.07 µM,–
Clc1cnc2n1CCN(c1noc(-c3ccc4cnn(C5CNC5)c4c3)n1)C2 [Compound 934],> 45 µM,0.01 µM,–
COC(=O)N1CCN(c2noc(-c3ccc4cnn(C5CNC5)c4c3)n2)CC1 [Compound 946],> 45 µM,4.11 µM,–
C=Cc1nn(C(C)C)c2cc(-c3noc(C4CCN(C(=O)OC(C)(C)C)CC4)n3)ccc12 [Compound 653],–,–,IC50 (SCD1; [1]): > 45 µM; IC50 (SCD5; [2]): > 45 µM
Cn1cc(-c2cc(-c3nc(C4CCN(C(=O)OC(C)(C)C)CC4)no3)ccn2)cn1 [Compound 1182],0.83 µM,0.72 µM,–
Cc1nn(C)c2cc(-c3noc([C@H]4CCN(C(=O)CNC(=O)c5ccccc5)CC4(F)F)n3)ccc12 [Compound 578],–,–,IC50 (SCD1; [3]): 8.46 µM; IC50 (SCD5; [4]): 1.49 µM
CC(C)(C)OC(=O)N1CCC(c2nc(-c3ccc4cnn([C@@H]5CCOC5)c4c3)no2)CC1 [Compound 792],8.83 µM,0.01 µM,–
Fc1c(-c2nc(C3CCNCC3)no2)ccc2cnn(C3COC3)c12 [Compound 989],> 45 µM,> 45 µM,–
CC(C)(C)OC(=O)N1CC(c2noc(-c3ccc4cnn(C5COC5)c4c3)n2)C1 [Compound 926],> 45 µM,> 45 µM,–
COC(=O)N1CCC(c2noc(-c3ccc4cnn(C5CCS(=O)(=O)C5)c4c3)n2)CC1 (stereo not drawn) [Compound 1077],> 45 µM,0.3 µM,–
COC1(C(=O)N2CCN(c3noc(-c4ccc5cnn(C(C)C)c5c4)n3)CC2)CC1 [Compound 889],13.3 µM,1.9 µM,–
C[C@H]1C[C@H](c2noc(-c3ccc4cnn(C5COC5)c4c3)n2)CCN1C(=O)OC(C)(C)C [Compound 1018],20.3 µM,0.01 µM,–
O=C(N1CCC(c2noc(-c3ccnc(C4CCOC4)c3)n2)CC1)C1(C(F)(F)F)CCC1 (stereo not drawn) [Compound 1176],> 45 µM,0.14 µM,–
COC(=O)N1CCC(c2noc(-c3ccnc(C4CCOC4)c3)n2)CC1 (stereo not drawn) [Compound 1015],> 45 µM,0.429 µM,–
